Results: patent US20210085640A1, “ACYLATED CATECHIN POLYPHENOLS AND METHODS OF THEIR USE FOR THE TREATMENT OF CANCER” (Flagship Pioneering Innovations V, Inc., priority 2018, published 2021)

Columns and labels:
Assay type in all cases: cell-based
T24 bladder cancer cells = test: Cancer cell survival (CellTiter-Glo), T24; settings: Homo sapiens
How it was run: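 Viability by CellTiter-Glo after 72 h compound treatment of T24 bladder cancer cells (4×10^3/well, plated the night before), nine concentration levels in triplicate. Percent survival normalised to untreated cells minus medium background, from which IC50 was determined.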

[1] = system: Daudi lymphoma cancer cells; test: Cancer cell survival (CellTiter-Glo), Daudi; settings: Homo sapiens, 72 h
How it was run: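 Daudi cells (4×10^3/well) were exposed for 72 h at 37 °C to nine concentrations of compound, added as 10× solutions spanning 1 μM–10 mM (fatty acids) or 100 nM–1 mM (others). CellTiter-Glo luminescence gave % survival versus untreated, medium-blank corrected; IC50 derived.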

MCF7 breast cancer cells = test: Cancer cell survival (CellTiter-Glo), MCF7; settings: Homo sapiens, 72 h, read-out: Cell survival at given concentration
How it was run: (§1)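 Following overnight plating of 4×10^3 cells per well, triplicate wells received compound at nine concentrations (10× dosing stocks: fatty acids 1 μM-10 mM, all others 100 nM-1 mM). Incubation lasted 72 h at 37 C under 5% CO2. CellTiter-Glo luminescence then gave percent survival and IC50.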

[2] = system: HCT 116 colorectal cancer cells; test: Cancer cell survival (CellTiter-Glo), HCT 116; settings: Homo sapiens, HCT 116 cells, 72 h
How it was run: as §1

A549 lung cancer cells = test: Cancer cell survival (CellTiter-Glo), A549; settings: Homo sapiens, 72 h, read-out: Cell survival at given concentration
How it was run: as §1

[3] = system: PC-3 prostate cancer cells; test: Cancer cell survival (CellTiter-Glo), PC-3; settings: Homo sapiens, PC-3 cells, 72 h, read-out: Cell survival at given concentration
How it was run: as §1

A-431 skin cancer cells = test: Cancer cell survival (CellTiter-Glo), A-431; settings: Homo sapiens, A-431 cells, 72 h
How it was run: as §1

AGS stomach cancer cells = test: Cancer cell survival (CellTiter-Glo), AGS; settings: 72 h
How it was run: as §1

[4] = 101 nM, read-out: Cell survival at given concentration
[5] = 318 nM, read-out: Cell survival at given concentration
[6] = 1 μM, read-out: Cell survival at given concentration
[7] = 3 μM, read-out: Cell survival at given concentration
[8] = 10 μM, read-out: Cell survival at given concentration
[9] = 32 μM, read-out: Cell survival at given concentration
[10] = 100 μM, read-out: Cell survival at given concentration
[11] = 316 μM, read-out: Cell survival at given concentration
[12] = 1000 μM, read-out: Cell survival at given concentration

Structure (SMILES): O=c1cc(-c2ccc(O)cc2)oc2cc(O)cc(O)c12 [apigenin]
- viability at 0.101 µM (T24 bladder cancer cells; T-24, 101 nM, 72 h, read-out: Cell survival at given concentration): 98%
- viability at 0.318 µM (T24 bladder cancer cells; T-24, 318 nM, 72 h, read-out: Cell survival at given concentration): 100%
- viability at 1 µM (T24 bladder cancer cells; T-24, 1 μM, 72 h, read-out: Cell survival at given concentration): 102%
- viability at 3 µM (T24 bladder cancer cells; T-24, 3 μM, 72 h, read-out: Cell survival at given concentration): 105%
- viability at 10 µM (T24 bladder cancer cells; T-24, 10 μM, 72 h, read-out: Cell survival at given concentration): 98%
- viability at 32 µM (T24 bladder cancer cells; T-24, 32 μM, 72 h, read-out: Cell survival at given concentration): 79%
- viability at 100 µM (T24 bladder cancer cells; T-24, 100 μM, 72 h, read-out: Cell survival at given concentration): 60%
- viability at 316 µM (T24 bladder cancer cells; T-24, 316 μM, 72 h, read-out: Cell survival at given concentration): 42%
- viability at 1000 µM (T24 bladder cancer cells; T-24, 1000 μM, 72 h, read-out: Cell survival at given concentration): 32%
- IC50 (T24 bladder cancer cells; T-24, 72 h, Table 3.1, read-out: 1050): 161 µM
- viability at 0.101 µM [1, 4]: 97%
- viability at 0.318 µM [1, 5]: 96%
- viability at 1 µM [1, 6]: 101%
- viability at 3 µM [1, 7]: 101%
- viability at 10 µM [1, 8]: 103%
- viability at 32 µM [1, 9]: 86%
- viability at 100 µM [1, 10]: 60%
- viability at 316 µM [1, 11]: 47%
- viability at 1000 µM [1, 12]: 44%
- IC50 ([1]; Table 4.1): 186 µM
- viability at 0.101 µM (MCF7 breast cancer cells; 101 nM): 98%
- viability at 0.318 µM (MCF7 breast cancer cells; 318 nM): 99%
- viability at 1 µM (MCF7 breast cancer cells; 1 μM): 98%
- viability at 3 µM (MCF7 breast cancer cells; 3 μM): 100%
- viability at 10 µM (MCF7 breast cancer cells; 10 μM): 102%
- viability at 32 µM (MCF7 breast cancer cells; 32 μM): 89%
- viability at 100 µM (MCF7 breast cancer cells; 100 μM): 82%
- viability at 316 µM (MCF7 breast cancer cells; 316 μM): 76%
- viability at 1000 µM (MCF7 breast cancer cells; 1000 μM): 73%
- viability at 0.101 µM [2, 4]: 99%
- viability at 0.318 µM [2, 5]: 100%
- viability at 1 µM [2, 6]: 100%
- viability at 3 µM [2, 7]: 99%
- viability at 10 µM [2, 8]: 98%
- viability at 32 µM [2, 9]: 60%
- viability at 100 µM [2, 10]: 32%
- viability at 316 µM [2, 11]: 19%
- viability at 1000 µM [2, 12]: 15%
- IC50 ([2]; Table 6.1): 45.8 µM
- viability at 0.101 µM (A549 lung cancer cells; 101 nM): 101%
- viability at 0.318 µM (A549 lung cancer cells; 318 nM): 102%
- viability at 1 µM (A549 lung cancer cells; 1 μM): 102%
- viability at 3 µM (A549 lung cancer cells; 3 μM): 98%
- viability at 10 µM (A549 lung cancer cells; 10 μM): 102%
- viability at 32 µM (A549 lung cancer cells; 32 μM): 100%
- viability at 100 µM (A549 lung cancer cells; 100 μM): 82%
- viability at 316 µM (A549 lung cancer cells; 316 μM): 67%
- viability at 1000 µM (A549 lung cancer cells; 1000 μM): 62%
- viability at 0.101 µM ([3]; 101 nM): 100%
- viability at 0.318 µM ([3]; 318 nM): 100%
- viability at 1 µM ([3]; 1 μM): 98%
- viability at 3 µM ([3]; 3 μM): 102%
- viability at 10 µM ([3]; 10 μM): 107%
- viability at 32 µM ([3]; 32 μM): 98%
- viability at 100 µM ([3]; 100 μM): 82%
- viability at 316 µM ([3]; 316 μM): 72%
- viability at 1000 µM ([3]; 1000 μM): 70%
- viability at 0.101 µM (A-431 skin cancer cells; [4]): 101%
- viability at 0.318 µM (A-431 skin cancer cells; [5]): 100%
- viability at 1 µM (A-431 skin cancer cells; [6]): 100%
- viability at 3 µM (A-431 skin cancer cells; [7]): 102%
- viability at 10 µM (A-431 skin cancer cells; [8]): 100%
- viability at 32 µM (A-431 skin cancer cells; [9]): 83%
- viability at 100 µM (A-431 skin cancer cells; [10]): 58%
- viability at 316 µM (A-431 skin cancer cells; [11]): 47%
- viability at 1000 µM (A-431 skin cancer cells; [12]): 45%
- IC50 (A-431 skin cancer cells; Table 9.1): 178 µM
- viability at 0.101 µM (AGS stomach cancer cells; [4]): 99%
- viability at 0.318 µM (AGS stomach cancer cells; [5]): 102%
- viability at 1 µM (AGS stomach cancer cells; 1 μM, Table 10.1, read-out: Cell survival at given concentration): 104%
- viability at 3 µM (AGS stomach cancer cells; 3 μM, Table 10.1, read-out: Cell survival at given concentration): 101%
- viability at 10 µM (AGS stomach cancer cells; 10 μM, Table 10.1, read-out: Cell survival at given concentration): 106%
- viability at 32 µM (AGS stomach cancer cells; 32 μM, Table 10.1, read-out: Cell survival at given concentration): 102%
- viability at 100 µM (AGS stomach cancer cells; 100 μM, Table 10.1, read-out: Cell survival at given concentration): 89%
- viability at 316 µM (AGS stomach cancer cells; [11]): 71%
- viability at 1000 µM (AGS stomach cancer cells; [12]): 64%
